This is an account of results in patent publication US20240173255A1, “Polymeric Micelle Coated with Chain-Like Poorly Soluble Drug, Preparation Method and Application” (Hangzhou Hanjing Biotechnology Co., Ltd, priority 2021, published 2024).

In brackets after ≈: the same amount, converted by molar mass.

Data set [1] is described as follows: Solubility of series A to E drugs in water and 10% Soluplus solution. It is filed as physicochemical. The note with it: for Solubility in 10% Soluplus: 10% Soluplus solution. An excerpt:
The solubilities of the poorly soluble chain-like drugs of the series A to E according to the present disclosure in water and a 10% Soluplus solution are shown in Table 2.

Data set [2] can be described thus: Solubility of compound CPD4 in different solvents or carriers (HPLC of supernatant). It is filed as physicochemical. The method, then:
Taking the symmetric diselenoline molecule CPD4 from series A prepared according to Example 1 as an example, solubilities in different solvents and carriers were measured separately. A test method was conducted as follows: 1 mg of the compound was added into 1 mL of different solvents or carriers separately, ultrasonicated in a water bath for 10 min to fully dissolve the compound to obtain a mixture, and the mixture was stirred at ambient temperature for 12 h, and centrifuged, and a compound concentration in a resulting supernatant was determined by HPLC.

Data set [3] is described as follows: Water solubility stated in background. The settings on record: background statement.
Where [4] appears, read: Sodium acetate buffer (pH = 4.5).

Regarding `O=c1c2cccc(F)c2[se]n1CCCCCCCn1[se]c2c(F)cccc2c1=O` [CPD10], in data set [1], the “Solubility in 10% Soluplus” value was found to be 600 µg/mL (≈ 1140 µM) and the Solubility in water is 1 µg/mL (≈ 1.89 µM).

On to `COc1ccc2[se]n(Cc3cccc(Cn4[se]c5ccc(OCCCn6nnnc6C)cc5c4=O)c3)c(=O)c2c1` [CPD34], for which, in data set [1], the “Solubility in 10% Soluplus” value was >1000 µg/mL and the Solubility in water was <10 µg/mL.

In the case of `COc1ccc2[se]n(CCCn3[se]c4ccc(O)cc4c3=O)c(=O)c2c1` [CPD11], in data set [1], the “Solubility in 10% Soluplus” value is >1000 µg/mL and the Solubility in water worked out at 15 µg/mL (≈ 31.1 µM).

As to `COc1ccc2[se]n(Cc3cccc(Cn4[se]c5ccc(OCCCN(C)C)cc5c4=O)c3)c(=O)c2c1` [CPD33], in data set [1], the “Solubility in 10% Soluplus” value is >1000 µg/mL and the Solubility in water was <10 µg/mL.

Consider `O=C(NCCCCCn1[se]c2ccccc2c1=O)c1ccccc1` [CPD38], for which, in data set [1], the “Solubility in 10% Soluplus” value was >1000 µg/mL and the Solubility in water was <10 µg/mL.

Regarding `COc1ccc2[se]n(CCCCCn3[se]c4ccc(OCCCN(C)C)cc4c3=O)c(=O)c2c1` [CPD23], in data set [1], the “Solubility in 10% Soluplus” value is >1000 µg/mL and the Solubility in water is <10 µg/mL.

Regarding `O=c1c2ccccc2[se]n1CCCCCn1[se]c2ccccc2c1=O` [CPD3], in data set [1], the “Solubility in 10% Soluplus” value was determined as 300 µg/mL (≈ 646 µM) and the Solubility in water is 1 µg/mL (≈ 2.15 µM).

Turning to `O=C(CCCCCn1[se]c2ccccc2c1=O)Nc1ccccc1` [CPD37], in data set [1], the “Solubility in 10% Soluplus” value is >1000 µg/mL and the Solubility in water was <10 µg/mL.

For `COc1ccc2[se]n(CCCCCCCn3[se]c4ccc(O)cc4c3=O)c(=O)c2c1` [CPD15], in data set [1], the “Solubility in 10% Soluplus” value was >1000 µg/mL and the Solubility in water was 10 µg/mL (≈ 18.6 µM).

For `O=c1c2cccc(F)c2[se]n1CCCCn1[se]c2c(F)cccc2c1=O` [CPD7], in data set [1], the “Solubility in 10% Soluplus” value was determined as 250 µg/mL (≈ 514 µM) and the Solubility in water worked out at 2 µg/mL (≈ 4.11 µM).

Take `COc1ccc2[se]n(CCCn3[se]c4ccc(OCCCN(C)C)cc4c3=O)c(=O)c2c1` [CPD21]: in data set [1], the “Solubility in 10% Soluplus” value was >1000 µg/mL and the Solubility in water was <10 µg/mL.

Take `O=c1c2cccc(F)c2[se]n1CCCCCCn1[se]c2c(F)cccc2c1=O` [CPD9]: in data set [1], the “Solubility in 10% Soluplus” value stood at 800 µg/mL (≈ 1560 µM) and the Solubility in water turned out to be 1 µg/mL (≈ 1.94 µM).

`COc1ccc2[se]n(Cc3cccc(Cn4[se]c5ccc(O)cc5c4=O)c3)c(=O)c2c1` [CPD31]: in data set [1], the “Solubility in 10% Soluplus” value was >1000 µg/mL and the Solubility in water was <10 µg/mL.

In the case of `COc1ccc2[se]n(Cc3cccc(Cn4[se]c5ccc(OCCCN=[N+]=[N-])cc5c4=O)c3)c(=O)c2c1` [CPD32], in data set [1], the “Solubility in 10% Soluplus” value is >1000 µg/mL and the Solubility in water was <10 µg/mL.

Take `COc1ccc2[se]n(CCCCCCn3[se]c4ccc(OCCCN(C)C)cc4c3=O)c(=O)c2c1` [CPD24]: in data set [1], the “Solubility in 10% Soluplus” value was >1000 µg/mL and the Solubility in water is <10 µg/mL.

On to `COc1ccc2[se]n(CCCCn3[se]c4ccc(OCCCn5nnnc5C)cc4c3=O)c(=O)c2c1` [CPD27], for which, in data set [1], the “Solubility in 10% Soluplus” value is >1000 µg/mL and the Solubility in water was <10 µg/mL.

As for `O=c1c2ccccc2[se]n1CCCn1[se]c2ccccc2c1=O` [CPD1], in data set [1], the “Solubility in 10% Soluplus” value was found to be 200 µg/mL (≈ 458 µM) and the Solubility in water was determined as 4 µg/mL (≈ 9.17 µM).

For the compound `O=c1c2ccccc2[se]n1CCCCCCn1[se]c2ccccc2c1=O` [CPD4], the Dissolution multiple in data set [2] (Acetone) came out at 275; in data set [2] (Acetonitrile), 263; in data set [2] (DMF) it was 10819; in data set [2] (DMSO), 21131; in data set [2] (Dichloromethane), 1981; in data set [2] (Ethanol) it was 800. For the same compound, the Dissolution multiple is recorded as 150 in data set [2] (Ethyl acetate); 1.38 in data set [2] (Hydrochloric acid (pH = 1.2)); 613 in data set [2] (Isopropanol); 46 in data set [2] (Liposome: Cholesterol); 40 in data set [2] (Liposome: Lecithin); 881 in data set [2] (Methanol). For the same compound, the Dissolution multiple is 0.5 in data set [2] (PBS (pH = 7.4)); 0.81 in data set [2] (setting [4]); 8.1 in data set [2] (Solid adjuvant F68); 61 in data set [2] (Solid adjuvant F127); 38 in data set [2] (Solid adjuvant HP-β-CD); 4.4 in data set [2] (Solid adjuvant PEG2000). Moreover, the Dissolution multiple was 5 in data set [2] (Solid adjuvant PEG4000); 3.8 in data set [2] (Solid adjuvant PEG6000); 44 in data set [2] (Solid adjuvant SBE-β-CD); 400 in data set [2] (Soluplus); 662 in data set [2] (n-Octanol). In addition, the Solubility (usually how much of the substance goes into solution per volume) in data set [2] (Acetone) is 440 ± 40 µg/mL (≈ 920 µM); in data set [2] (Acetonitrile), 420 ± 5 µg/mL (≈ 878 µM); in data set [2] (DMF), 17310 ± 320 µg/mL (≈ 36200 µM); in data set [2] (DMSO), 33810 ± 700 µg/mL (≈ 70700 µM); in data set [2] (Dichloromethane), 3170 ± 160 µg/mL (≈ 6630 µM); in data set [2] (Ethanol), 1280 ± 40 µg/mL (≈ 2680 µM). Besides, the Solubility in data set [2] (Ethyl acetate) amounted to 240 ± 20 µg/mL (≈ 502 µM); in data set [2] (Hydrochloric acid (pH = 1.2)), 2.2 ± 0.26 µg/mL (≈ 4.6 µM); in data set [2] (Isopropanol), 980 ± 60 µg/mL (≈ 2050 µM); in data set [2] (Liposome: Cholesterol) it was 60 ± 1 µg/mL (≈ 125 µM); in data set [2] (Liposome: Lecithin), 40 ± 5 µg/mL (≈ 83.6 µM); in data set [2] (Methanol), 1410 ± 130 µg/mL (≈ 2950 µM). Further, the Solubility turned out to be 0.8 ± 0.15 µg/mL (≈ 1.67 µM) in data set [2] (PBS (pH = 7.4)); 1.3 ± 0.47 µg/mL (≈ 2.72 µM) in data set [2] (setting [4]); 13 ± 3 µg/mL in data set [2] (Solid adjuvant F68); 98 ± 8 µg/mL in data set [2] (Solid adjuvant F127); 60 ± 3 µg/mL in data set [2] (Solid adjuvant HP-β-CD); 7 ± 2 µg/mL in data set [2] (Solid adjuvant PEG2000). Further, the Solubility is 8 ± 1 µg/mL in data set [2] (Solid adjuvant PEG4000); 6 ± 1 µg/mL in data set [2] (Solid adjuvant PEG6000); 71 ± 4 µg/mL in data set [2] (Solid adjuvant SBE-β-CD); 515 ± 8 µg/mL (≈ 1080 µM) in data set [2] (Soluplus); 1060 ± 80 µg/mL (≈ 2220 µM) in data set [2] (n-Octanol); 1.6 ± 0.05 µg/mL (≈ 3.35 µM) in data set [2] (water). The “Solubility in 10% Soluplus” value in data set [1] was 500 µg/mL (≈ 1050 µM). Moreover, the Solubility in water in data set [1] stood at 1 µg/mL (≈ 2.09 µM).

On to `COc1ccc2[se]n(CCCCCCCn3[se]c4ccc(OCCCN=[N+]=[N-])cc4c3=O)c(=O)c2c1` [CPD20], for which, in data set [1], the “Solubility in 10% Soluplus” value was >1000 µg/mL and the Solubility in water was <10 µg/mL.

With `COc1ccc2[se]n(CCCCCCn3[se]c4ccc(OCCCn5nnnc5C)cc4c3=O)c(=O)c2c1` [CPD29], in data set [1], the “Solubility in 10% Soluplus” value is >1000 µg/mL and the Solubility in water is <10 µg/mL.

With `COc1ccc2[se]n(CCCCCCCn3[se]c4ccc(OCCCn5nnnc5C)cc4c3=O)c(=O)c2c1` [CPD30], in data set [1], the “Solubility in 10% Soluplus” value is >1000 µg/mL and the Solubility in water was <10 µg/mL.

`COc1ccc2[se]n(CCCCCn3[se]c4ccc(O)cc4c3=O)c(=O)c2c1` [CPD13]: in data set [1], the “Solubility in 10% Soluplus” value is >1000 µg/mL and the Solubility in water amounted to 10 µg/mL (≈ 19.6 µM).

Turning to `O=c1c2ccccc2[se]n1CCCCn1[se]c2ccccc2c1=O` [CPD2], in data set [1], the “Solubility in 10% Soluplus” value amounted to 200 µg/mL (≈ 444 µM) and the Solubility in water turned out to be 1 µg/mL (≈ 2.22 µM).

Regarding `COc1ccc2[se]n(CCCCn3[se]c4ccc(OCCCN(C)C)cc4c3=O)c(=O)c2c1` [CPD22], in data set [1], the “Solubility in 10% Soluplus” value is >1000 µg/mL and the Solubility in water is <10 µg/mL.

Regarding `COc1ccc2[se]n(CCCCn3[se]c4ccc(OCCCN=[N+]=[N-])cc4c3=O)c(=O)c2c1` [CPD17], in data set [1], the “Solubility in 10% Soluplus” value was >1000 µg/mL and the Solubility in water is <10 µg/mL.

With `COc1ccc2[se]n(CCCCCCn3[se]c4ccc(OCCCN=[N+]=[N-])cc4c3=O)c(=O)c2c1` [CPD19], in data set [1], the “Solubility in 10% Soluplus” value was >1000 µg/mL and the Solubility in water was <10 µg/mL.

Regarding `COc1ccc2[se]n(CCCCCCn3[se]c4ccc(O)cc4c3=O)c(=O)c2c1`, the water solubility in data set [3] amounted to 3.3 µg/mL (≈ 6.29 µM).

Take `COc1ccc2[se]n(CCCCCCCn3[se]c4ccc(OCCCN(C)C)cc4c3=O)c(=O)c2c1` [CPD25]: in data set [1], the “Solubility in 10% Soluplus” value was >1000 µg/mL and the Solubility in water was <10 µg/mL.

As for `O=c1c2cccc(F)c2[se]n1CCCCCn1[se]c2c(F)cccc2c1=O` [CPD8], in data set [1], the “Solubility in 10% Soluplus” value worked out at 300 µg/mL (≈ 600 µM) and the Solubility in water was determined as 1 µg/mL (≈ 2 µM).

As to `O=C(CCCCCn1[se]c2ccccc2c1=O)Oc1ccccc1` [CPD36], in data set [1], the “Solubility in 10% Soluplus” value is >1000 µg/mL and the Solubility in water was <10 µg/mL.

Consider `COc1ccc2[se]n(CCCn3[se]c4ccc(OCCCn5nnnc5C)cc4c3=O)c(=O)c2c1` [CPD26], for which, in data set [1], the “Solubility in 10% Soluplus” value was >1000 µg/mL and the Solubility in water is <10 µg/mL.

For the compound `COc1ccc2[se]n(CCCCCn3[se]c4ccc(OCCCn5nnnc5C)cc4c3=O)c(=O)c2c1` [CPD28], in data set [1], the “Solubility in 10% Soluplus” value was >1000 µg/mL and the Solubility in water is <10 µg/mL.

Consider `O=c1c2ccccc2[se]n1CCCCCCCn1[se]c2ccccc2c1=O` [CPD5], for which, in data set [1], the “Solubility in 10% Soluplus” value was determined as 500 µg/mL (≈ 1020 µM) and the Solubility in water came out at 1 µg/mL (≈ 2.03 µM).

Take `COc1ccc2[se]n(CCCCCn3[se]c4ccc(OCCCN=[N+]=[N-])cc4c3=O)c(=O)c2c1` [CPD18]: in data set [1], the “Solubility in 10% Soluplus” value was >1000 µg/mL and the Solubility in water was <10 µg/mL.
